Drawing on ChEMBL document CHEMBL1133786, “Synthesis and dopaminergic properties of the two enantiomers of 3-(3,4-dimethylphenyl)-1-propylpiperidine, a potent and selective dopamine D4 receptor ligand” (Bioorg Med Chem Lett, 2001), this text covers Ki for 8 compounds.

Assay [1] in a line: Binding affinity for dopamine D2-D3 like receptor labelled with [3H]YM-09151-2 in striatum. The assay is classed as tissue-based, Bos taurus.
Assay [2] can be described thus: Binding affinity for dopamine D4-like receptor labelled with [3H]YM-09151-2 in retina. The assay is classed as tissue-based, Bos taurus.
The target in a further assay is D(1A) dopamine receptor (Bos taurus, UniProt Q95136). The assay is described as follows: Binding affinity for dopamine D1-like receptor labelled with [3H]SCH-23390 in retina. The format is tissue-based.
Sequence of D(1A) dopamine receptor (Q95136 whole entry): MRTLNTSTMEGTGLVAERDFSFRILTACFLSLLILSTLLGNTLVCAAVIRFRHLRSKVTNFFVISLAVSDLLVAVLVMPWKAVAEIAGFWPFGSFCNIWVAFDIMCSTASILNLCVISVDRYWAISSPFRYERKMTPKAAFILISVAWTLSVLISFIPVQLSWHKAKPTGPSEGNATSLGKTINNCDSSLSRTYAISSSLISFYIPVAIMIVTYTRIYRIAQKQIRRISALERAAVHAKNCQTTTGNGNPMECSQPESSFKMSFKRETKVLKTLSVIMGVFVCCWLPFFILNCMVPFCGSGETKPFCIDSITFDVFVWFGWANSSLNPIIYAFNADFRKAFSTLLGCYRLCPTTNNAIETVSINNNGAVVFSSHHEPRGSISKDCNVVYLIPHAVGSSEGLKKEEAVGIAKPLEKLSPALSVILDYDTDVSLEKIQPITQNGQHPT

Take `NCCc1ccc(O)c(O)c1` [DOPAMINE]: the Ki in assay [1] amounted to 130 nM; in assay [2], 15 nM.
On to `Cc1cccc(C(=O)NCN2CCN(c3ccccc3C#N)CC2)c1` [PD-168,077], for which the inhibitory constant (Ki) in assay [1] came out at 18300 nM; in assay [2], 25 nM.
`CCCN1CCC[C@H](c2ccc(C)c(C)c2)C1`: the Ki is > 100 µM at D(1A) dopamine receptor, > 100000 nM in assay [1] and 4 nM in assay [2].
`CCCN1CCC[C@@H]2Cc3n[nH]cc3C[C@H]21` [QUINPIROLE]: the Ki in assay [1] turned out to be 241 nM; in assay [2], 59 nM.
Take `CCCN1CCC[C@H](c2cccc(O)c2)C1`: the Ki in assay [1] was 404 nM; in assay [2], 397 nM.
The corresponding values for `CCCN1CCC[C@@H](c2cccc(O)c2)C1` [PRECLAMOL] are 8 nM and 187 nM.
Turning to `CCCN1CCCC(c2ccc(C)c(C)c2)C1` (centres undefined), the Ki was > 100 µM on D(1A) dopamine receptor, 11000 nM in assay [1] and 10 nM in assay [2].
The corresponding values for `CCCN1CCC[C@@H](c2ccc(C)c(C)c2)C1` are > 100 µM, 5000 nM and 23 nM.

As usually defined, the Ki is the equilibrium dissociation constant of an inhibitor or competing ligand from its target. Low readings indicate tighter binding, high ones weaker binding.
